The target of one data set is T1, human TLR8 (Homo sapiens, UniProt Q9NR97).
T1 construct: host or cells: HEK293 (HEK-Blue hTLR8)
T1 sequence (Q9NR97 27-1041): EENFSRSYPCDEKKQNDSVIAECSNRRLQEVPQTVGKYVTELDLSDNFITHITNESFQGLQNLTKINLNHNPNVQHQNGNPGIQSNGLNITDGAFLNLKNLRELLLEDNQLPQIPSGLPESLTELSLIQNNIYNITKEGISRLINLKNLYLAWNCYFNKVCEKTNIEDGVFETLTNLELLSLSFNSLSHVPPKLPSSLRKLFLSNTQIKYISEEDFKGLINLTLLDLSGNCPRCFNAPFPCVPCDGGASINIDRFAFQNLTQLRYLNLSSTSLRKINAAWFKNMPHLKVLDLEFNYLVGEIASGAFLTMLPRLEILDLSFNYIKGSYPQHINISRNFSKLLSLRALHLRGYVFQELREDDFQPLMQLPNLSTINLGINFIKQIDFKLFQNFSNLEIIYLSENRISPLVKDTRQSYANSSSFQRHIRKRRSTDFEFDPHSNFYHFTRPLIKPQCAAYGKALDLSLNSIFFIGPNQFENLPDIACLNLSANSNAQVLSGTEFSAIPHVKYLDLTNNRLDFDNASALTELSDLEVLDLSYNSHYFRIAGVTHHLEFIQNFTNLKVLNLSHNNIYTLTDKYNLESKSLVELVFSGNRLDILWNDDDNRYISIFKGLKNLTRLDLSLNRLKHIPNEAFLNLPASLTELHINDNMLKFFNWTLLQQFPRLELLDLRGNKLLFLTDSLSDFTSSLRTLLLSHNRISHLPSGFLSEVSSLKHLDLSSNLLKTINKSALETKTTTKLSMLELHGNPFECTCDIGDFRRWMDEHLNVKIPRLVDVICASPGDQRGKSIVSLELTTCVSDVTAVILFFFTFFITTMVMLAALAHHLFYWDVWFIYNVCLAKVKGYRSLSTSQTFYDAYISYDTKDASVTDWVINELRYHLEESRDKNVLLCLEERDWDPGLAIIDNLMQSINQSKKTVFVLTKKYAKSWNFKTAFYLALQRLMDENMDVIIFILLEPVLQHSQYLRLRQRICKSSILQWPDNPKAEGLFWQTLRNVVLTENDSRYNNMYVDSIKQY
Briefly: HEK293-Blue-hTLR-8 cells assay (SEAP reporter, R848 stimulation). As to conditions: HEK293-Blue-hTLR8 cells, R848, 20 hrs; read-out: HEK/hTLR8 IC50. The format is cell-based. Here is the method: The following tests were carried out in order to determine the activity of the compounds of formula (I) and (Ia) in HEK293-Blue-hTLR-7/8/9 cells assay.
A stable HEK293-Blue-hTLR-8 cell line was purchased from InvivoGen (Cat. #: hkb-htlr8, San Diego, California, USA). These cells were originally designed for studying the stimulation of human TLR8 by monitoring the activation of NF-κB. A SEAP (secreted embryonic alkaline phosphatase) reporter gene was placed under the control of the IFN-β minimal promoter fused to five NF-κB and AP-1-binding sites. The SEAP was induced by activating NF-κB and AP-1 via stimulating HEK-Blue hTLR8 cells with TLR8 ligands. Therefore the reporter expression was declined by TLR8 antagonist under the stimulation of a ligand, such as R848, for incubation of 20 hrs. The cell culture supernatant SEAP reporter activity was determined using QUANTI-Blue™ kit (Cat. #: rep-qb1, Invivogen, San Diego, Ca, USA) at a wavelength of 640 nm, a detection medium that turns purple or blue in the presence of alkaline phosphatase.
HEK293-Blue-hTLR8 cells were incubated at a density of 250,000˜450,000 cells/mL in a volume of 170 μL in a 96-well plate in Dulbecco's Modified Eagle's medium (DMEM) containing 4.5 g/L glucose, […] penicillin, […], […] Normocin, 2 mM L-glutamine, 10% (v/v) heat-inactivated fetal bovine serum with addition of 20 μL test compound in a serial dilution in the presence of final DMSO at 1% and 10 μL of 60 uM R848 in above DMEM, perform incubation under 37° C. in a C02 incubator for 20 hrs. Then 20 μL of the supernatant from each well was incubated with 180 μL Quanti-blue substrate solution at 37° C. for 2 hrs and the absorbance was read at 620-655 nm using a spectrophotometer. The signaling pathway that TLR8 activation leads to downstream NF-κB activation has been widely accepted, and therefore similar reporter assay was modified for evaluating TLR8 antagonist.

Data set [1] is described as follows: Human microsome stability assay. The class given is in vitro ADME. Conditions: 1 μM test compound, 0.5 mg/mL liver microsomal protein, 37° C., pH 7.4. The procedure: The human microsomal stability assay is used for early assessment of metabolic stability of a test compound in human liver microsomes.
Human liver microsomes (Cat. NO.: 452117, Corning, USA; Cat. NO.: H2610, Xenotech, USA) were preincubated with test compound for 10 minutes at 37° C. in 100 mM potassium phosphate buffer, pH 7.4. The reactions were initiated by adding NADPH regenerating system. The final incubation mixtures contained 1 μM test compound, 0.5 mg/mL liver microsomal protein, 1 mM MgCl2, 1 mM NADP, 1 unit/mL isocitric dehydrogenase and 6 mM isocitric acid in 100 mM potassium phosphate buffer, pH 7.4. After incubation times of 0, 3, 6, 9, 15 and 30 minutes at 37° C., 300 μL of cold acetonitrile (including internal standard) was added to 100 μL incubation mixture to terminate the reaction. Following precipitation and centrifugation, the amount of compound remaining in the samples were determined by LC-MS/MS. Controls of no NADPH regenerating system at zero and 30 minutes were also prepared and analyzed.

As to `Cc1cc(N2Cc3ccc(N4C[C@@H](F)[C@@H](N)C4)nc3[C@@H](C)C2)c2cnn(C)c2n1` [Example 69, (3S,4R)-4-fluoro-1-[(8S)-6-(1,6-dimethylpyrazolo[3,4-b]pyridin-4-yl)-8-methyl-7,8-dihydro-5H-1,6-naphthyridin-2-yl]pyrrolidin-3-amine], the IC50 at human TLR8 worked out at 9 nM. In addition, the “Clearance of Human microsome” value in data set [1] was 8.1 mL/min/kg.
For `C[C@H]1CN(c2ccnc3c2cnn3C)Cc2ccc(N3CCC(N4CC[C@@H](N)[C@H](O)C4)CC3)cc21` [Example 29, trans-4-amino-1-[1-[(4R)-4-methyl-2-(1-methylpyrazolo[3,4-b]pyridin-4-yl)-3,4-dihydro-1H-isoquinolin-6-yl]-4-piperidyl]piperidin-3-ol], the IC50 at human TLR8 was 2 nM. In data set [1], the “Clearance of Human microsome” value came out at 9.7 mL/min/kg.
Turning to `Cc1cc(N2Cc3cnc(N4CC[C@@H](N)[C@H](F)C4)cc3[C@@H](C)C2)c2cnn(C)c2n1` [Example 80, (3R,4R)-3-fluoro-1-[(5R)-7-(1,6-dimethylpyrazolo[3,4-b]pyridin-4-yl)-5-methyl-6,8-dihydro-5H-2,7-naphthyridin-3-yl]piperidin-4-amine], the IC50 at human TLR8 was 34 nM. Moreover, the “Clearance of Human microsome” value in data set [1] was 6.2 mL/min/kg.
In the same order, the values of `C[C@H]1CN(c2ccnc3c2cnn3C)Cc2ccc(N3CCN[C@H](CO)C3)cc21` [Example 51, [(2S)-4-[(4R)-4-methyl-2-(1-methylpyrazolo[3,4-b]pyridin-4-yl)-3,4-dihydro-1H-isoquinolin-6-yl]piperazin-2-yl]methanol] are 4 nM and 7.7 mL/min/kg.
In the same order, the values of `CCn1ncc2c(N3Cc4ccc(N5CCNCC5)cc4[C@@H](C)C3)ccnc21` [Example 22, (4R)-2-(1-ethylpyrazolo[3,4-b]pyridin-4-yl)-4-methyl-6-piperazin-1-yl-3,4-dihydro-1H-isoquinoline] are 16 nM and 6.2 mL/min/kg.
With `CO[C@@H]1CN(c2ccc3c(c2)[C@@H](C)CN(c2ccnc4c2cnn4C)C3)C[C@H]1N` [Example 20, (3R,4R)-4-methoxy-1-[(4R)-4-methyl-2-(1-methylpyrazolo[3,4-b]pyridin-4-yl)-3,4-dihydro-1H-isoquinolin-6-yl]pyrrolidin-3-amine], the IC50 on human TLR8 came to 17 nM. Moreover, the “Clearance of Human microsome” value in data set [1] came to 10.2 mL/min/kg.
For `C[C@H]1CN(c2ccnc3c2cnn3C)Cc2ccc(N3CCN[C@@H](CO)C3)cc21` [Example 50, [(2R)-4-[(4R)-4-methyl-2-(1-methylpyrazolo[3,4-b]pyridin-4-yl)-3,4-dihydro-1H-isoquinolin-6-yl]piperazin-2-yl]methanol] the same measures were 3 nM and 6.2 mL/min/kg.
In the same order, the values of `C[C@H]1CN(c2ccnc3c2cnn3C)Cc2ccc(N3CC4(CCNC4)OC3=O)cc21` (stereo partly drawn) [Example 35, 3-[(4R)-4-methyl-2-(1-methylpyrazolo[3,4-b]pyridin-4-yl)-3,4-dihydro-1H-isoquinolin-6-yl]-1-oxa-3,7-diazaspiro[4.4]nonan-2-one] are 14 nM and 8.4 mL/min/kg.
For `Cc1cc(N2Cc3ccc(N4CCC(C)(N)CC4)nc3[C@@H](C)C2)c2cnn(C)c2n1` [Example 59, 4-methyl-1-[(8S)-6-(1,6-dimethylpyrazolo[3,4-b]pyridin-4-yl)-8-methyl-7,8-dihydro-5H-1,6-naphthyridin-2-yl]piperidin-4-amine] the same measures were 0.5 nM and 9.4 mL/min/kg.
As to `Cc1cc(N2Cc3ccc(N4CCN(C)CC4)nc3[C@@H](C)C2)c2cnn(C)c2n1` [Example 67, (8S)-6-(1,6-dimethylpyrazolo[3,4-b]pyridin-4-yl)-8-methyl-2-(4-methylpiperazin-1-yl)-7,8-dihydro-5H-1,6-naphthyridine], the IC50 on human TLR8 is 1 nM. Besides, the “Clearance of Human microsome” value in data set [1] turned out to be 10.5 mL/min/kg.
For `Cc1cc(N2Cc3ccc(N4CC5(CNCCO5)C4)nc3[C@@H](C)C2)c2cnn(C)c2n1` [Example 68, 2-[(8S)-6-(1,6-dimethylpyrazolo[3,4-b]pyridin-4-yl)-8-methyl-7,8-dihydro-5H-1,6-naphthyridin-2-yl]-5-oxa-2,8-diazaspiro[3.5]nonane] the same measures were 17 nM and 9.8 mL/min/kg.
With `CO[C@@H]1CN(c2ccc3c(c2)[C@@H](C)CN(c2cc(C)nc4c2cnn4C)C3)C[C@H]1N` [Example 23, (3R,4R)-4-methoxy-1-[(4R)-2-(1,6-dimethylpyrazolo[3,4-b]pyridin-4-yl)-4-methyl-3,4-dihydro-1H-isoquinolin-6-yl]pyrrolidin-3-amine], the IC50 at human TLR8 stood at 7 nM. Further, the “Clearance of Human microsome” value in data set [1] is given as 7.5 mL/min/kg.
Regarding `Cc1cc(N2Cc3ccc(N4CC5(CNCCO5)C4)cc3[C@@H](C)C2)c2cnn(C)c2n1` [Example 48, 2-[(4R)-2-(1,6-dimethylpyrazolo[3,4-b]pyridin-4-yl)-4-methyl-3,4-dihydro-1H-isoquinolin-6-yl]-5-oxa-2,8-diazaspiro[3.5]nonane], on human TLR8, the IC50 is 6 nM. Moreover, the “Clearance of Human microsome” value in data set [1] is 7.2 mL/min/kg.
As for `C[C@H]1CN(c2ccnc3c2cnn3C)Cc2ccc(N3CC4(CNCCO4)C3)cc21` [Example 21, 2-[(4R)-4-methyl-2-(1-methylpyrazolo[3,4-b]pyridin-4-yl)-3,4-dihydro-1H-isoquinolin-6-yl]-5-oxa-2,8-diazaspiro[3.5]nonane], at human TLR8, the IC50 stood at 14 nM. The “Clearance of Human microsome” value in data set [1] is listed as 10.1 mL/min/kg.
In the same order, the values of `Cc1cc(N2Cc3ccc(N4CCC(N)CC4)nc3[C@@H](C)C2)c2cnn(C)c2n1` [Example 58, 1-[(8S)-6-(1,6-dimethylpyrazolo[3,4-b]pyridin-4-yl)-8-methyl-7,8-dihydro-5H-1,6-naphthyridin-2-yl]piperidin-4-amine] are 0.4 nM and 9.0 mL/min/kg.
For `C[C@H]1CN(c2ccnc3c2cnn3C)Cc2ccc(OC3CN(C4CCNCC4)C3)cc21` [Example 41, (4R)-4-methyl-2-(1-methylpyrazolo[3,4-b]pyridin-4-yl)-6-[1-(4-piperidyl)azetidin-3-yl]oxy-3,4-dihydro-1H-isoquinoline] the same measures were 8 nM and 6.2 mL/min/kg.

Source of the values: patent US20240317735A1, “HYDROISOQUINOLINE OR HYDRONAPHTHYRIDINE COMPOUNDS FOR THE TREATMENT OF AUTOIMMUNE DISEASE” (Hoffmann-La Roche Inc., priority 2020, published 2024).
